Laboratory results as given in patent publication US20150246058A1, “COMPOSITION FOR PREVENTING HAIR LOSS AND ACCELERATING HAIR GROWTH” (RNS CO., LTD., priority 2012, published 2015).

Test system: 5α-reductase
Experiment: 5α-reductase inhibitory efficacy: DHT produced in testosterone-stimulated dermal papilla cells (DHT ELISA)
Type: cell-based
Conditions: 50 nM testosterone, 24 hours, produced DHT relative to control
Protocol: After seeding 1 ml of dermal papilla cells (DPCs) by 5×10^5/ml into each well of a 24-well plate, then incubating the same for 24 hours, each of the reaction products prepared according to procedures described in Examples 1 to 72 was added in amounts of 50 μg/ml, 10 μg/ml and 0 μg/ml, respectively, to individual wells. After 1 hour, the wells were subjected to stimulation using 50 nM testosterone (DMSO dissolved). The supernatant was discarded 24 hours after culturing, to thus obtain DPc pellets. A content of dihydrotestosterone (DHT) (DB52021, Hamburg, Germany) was determined by means of enzyme-linked immune-sorbent assay. DPCs cell pellets were seeded in an amount of 100 μL into each of Dihydrotestosterone (DHT) ELISA microtiter strips coated with rabbit anti-DHT antibody, 25 μL of DHT antiserum was seeded in every well, and subjected to a reaction at 2 to 8° C. for 15 to 20 hours, followed by washing the same three times. Thereafter, 100 μL of DHT-HRP enzyme conjugate was seeded in every well and reacted on a shaker at room temperature for 30 minutes, followed by washing the same three times. Furthermore, 100 μL of substrate was seeded in every well and reacted on a shaker at room temperature for 20 to 30 minutes. Then, the product was treated using 100 μL stop solution, and subjected to measurement of absorbance at 450 nm to express an amount of produced DHT by the absorbance (three times repeated). An amount of produced DHT relative to a control was calculated in terms of an inhibitory rate (%), and results thereof are shown in Table 3 below.

CC1(C)CC[C@]2(C(=O)O)CC[C@]3(C)C(=CC[C@@H]4[C@@]5(C)CC[C@H](O)C(C)(C)[C@@H]5CC[C@]43C)[C@@H]2C1 [Compound in Example 22, oleanolic acid]
5α-reductase inhibitory rate (%) (sample concentration 10 μg/ml): 7% | 5α-reductase inhibitory rate (%) (sample concentration 50 μg/ml): 16%

CCCCCCCC(=O)OC1CCC2(C)C(CCC3(C)C2CC=C2C4CC(C)(C)CCC4(C(=O)O)CCC23C)C1(C)C (centres unmarked) [Compound in Example 24, oleanolic acid octanoate]
5α-reductase inhibitory rate (%) (sample concentration 10 μg/ml): 21% | 5α-reductase inhibitory rate (%) (sample concentration 50 μg/ml): 39%

CC1(C)CC[C@]2(C)CC[C@]3(C)C(=CC[C@@H]4[C@@]5(C)CC[C@@H](O)[C@](C)(C(=O)O)[C@@H]5CC[C@]43C)[C@@H]2C1 [Compound in Example 26, α-boswellic acid]
5α-reductase inhibitory rate (%) (sample concentration 10 μg/ml): 10% | 5α-reductase inhibitory rate (%) (sample concentration 50 μg/ml): 19%

CC(=O)OC1CCC2(C)C(CCC3(C)C2CC=C2C4CC(C)(C)CCC4(C)CCC23C)C1(C)C(=O)O (stereo not drawn) [Compound in Example 27, α-boswellic acid acetate]
5α-reductase inhibitory rate (%) (sample concentration 10 μg/ml): 21% | 5α-reductase inhibitory rate (%) (sample concentration 50 μg/ml): 29%

C[C@H]1[C@H](C)CC[C@]2(C)CC[C@]3(C)C(=CC[C@@H]4[C@@]5(C)CC[C@@H](O)[C@](C)(C(=O)O)[C@@H]5CC[C@]43C)[C@H]12 [Compound in Example 29, β-boswellic acid]
5α-reductase inhibitory rate (%) (sample concentration 10 μg/ml): 11% | 5α-reductase inhibitory rate (%) (sample concentration 50 μg/ml): 23%

CC(=O)OC1CCC2(C)C(CCC3(C)C2CC=C2C4C(C)C(C)CCC4(C)CCC23C)C1(C)C(=O)O (stereo not drawn) [Compound in Example 30, β-boswellic acid acetate]
5α-reductase inhibitory rate (%) (sample concentration 10 μg/ml): 14% | 5α-reductase inhibitory rate (%) (sample concentration 50 μg/ml): 29%

C=C(C)[C@@H]1CC[C@]2(C(=O)O)CC[C@]3(C)[C@H](CC[C@@H]4[C@@]5(C)CC[C@H](O)C(C)(C)[C@@H]5CC[C@]43C)[C@@H]12 [Compound in Example 32, betulinic acid]
5α-reductase inhibitory rate (%) (sample concentration 10 μg/ml): 9% | 5α-reductase inhibitory rate (%) (sample concentration 50 μg/ml): 17%

CC1(C)[C@@H](O)CC[C@]2(C)[C@H]3C(=O)C=C4[C@@H]5C[C@@](C)(C(=O)O)CC[C@]5(C)CC[C@@]4(C)[C@]3(C)CC[C@@H]12 [Compound in Example 34, glycyrrhetinic acid]
5α-reductase inhibitory rate (%) (sample concentration 10 μg/ml): 6% | 5α-reductase inhibitory rate (%) (sample concentration 50 μg/ml): 18%

C[C@]12CC[C@H](O)CC1=CC[C@@H]1[C@@H]2CC[C@]2(C)C(=O)CC[C@@H]12 [Compound in Example 36, dihydroandrosterone]
5α-reductase inhibitory rate (%) (sample concentration 10 μg/ml): 9% | 5α-reductase inhibitory rate (%) (sample concentration 50 μg/ml): 28%

CC(C)=CCC[C@@H](C)[C@H]1CC[C@H]2[C@@H]3CC=C4C[C@@H](O)CC[C@]4(C)[C@H]3CC[C@]12C [Compound in Example 38, desmosterol]
5α-reductase inhibitory rate (%) (sample concentration 10 μg/ml): 12% | 5α-reductase inhibitory rate (%) (sample concentration 50 μg/ml): 31%

CC(C)CCC[C@@H](C)[C@H]1CC[C@H]2[C@@H]3CC=C4C[C@@H](O)CC[C@]4(C)[C@H]3CC[C@]12C [Compound in Example 40, cholesterol]
5α-reductase inhibitory rate (%) (sample concentration 10 μg/ml): 15% | 5α-reductase inhibitory rate (%) (sample concentration 50 μg/ml): 17%

CCCCCCCCCCCCCCCCCC(=O)O[C@H]1CC[C@@]2(C)C(=CC[C@H]3[C@@H]4CC[C@H]([C@H](C)CCCC(C)C)[C@@]4(C)CC[C@@H]32)C1 [Compound in Example 41, cholesterol stearate]
5α-reductase inhibitory rate (%) (sample concentration 10 μg/ml): 26% | 5α-reductase inhibitory rate (%) (sample concentration 50 μg/ml): 39%

CC[C@H](/C=C/[C@@H](C)[C@H]1CC[C@H]2[C@@H]3CC=C4C[C@@H](O)CC[C@]4(C)[C@H]3CC[C@]12C)C(C)C [Compound in Example 42, Stigmasterol]
5α-reductase inhibitory rate (%) (sample concentration 10 μg/ml): 8% | 5α-reductase inhibitory rate (%) (sample concentration 50 μg/ml): 24%

CCCCCCCCCCCCCCCCCC(=O)O[C@H]1CC[C@@]2(C)C(=CC[C@H]3[C@@H]4CC[C@H]([C@H](C)/C=C/[C@@H](CC)C(C)C)[C@@]4(C)CC[C@@H]32)C1 [Compound in Example 43, Stigmasterol stearate]
5α-reductase inhibitory rate (%) (sample concentration 10 μg/ml): 31% | 5α-reductase inhibitory rate (%) (sample concentration 50 μg/ml): 41%

CC(C)[C@H](C)CC[C@@H](C)[C@H]1CC[C@H]2[C@@H]3CC=C4C[C@@H](O)CC[C@]4(C)[C@H]3CC[C@]12C [Compound in Example 44, Campesterol]
5α-reductase inhibitory rate (%) (sample concentration 10 μg/ml): 11% | 5α-reductase inhibitory rate (%) (sample concentration 50 μg/ml): 21%

CCCCCCCCCCCCCCCCCC(=O)O[C@H]1CC[C@@]2(C)C(=CC[C@H]3[C@@H]4CC[C@H]([C@H](C)CC[C@@H](C)C(C)C)[C@@]4(C)CC[C@@H]32)C1 [Compound in Example 45, Campesterol stearate]
5α-reductase inhibitory rate (%) (sample concentration 10 μg/ml): 26% | 5α-reductase inhibitory rate (%) (sample concentration 50 μg/ml): 43%

CC(C)[C@@H](C)/C=C/[C@@H](C)[C@H]1CC[C@H]2[C@@H]3CC=C4C[C@@H](O)CC[C@]4(C)[C@H]3CC[C@]12C [Compound in Example 46, brassicasterol]
5α-reductase inhibitory rate (%) (sample concentration 10 μg/ml): 8% | 5α-reductase inhibitory rate (%) (sample concentration 50 μg/ml): 19%

C/C=C(\CC[C@@H](C)[C@H]1CC[C@H]2[C@@H]3CC=C4C[C@@H](O)CC[C@]4(C)[C@H]3CC[C@]12C)C(C)C [Compound in Example 48, fucosterol]
5α-reductase inhibitory rate (%) (sample concentration 10 μg/ml): 12% | 5α-reductase inhibitory rate (%) (sample concentration 50 μg/ml): 19%

COC1CCC2(C)C(CCC3(C)C2CC=C2C4CC(C)(C)CCC4(C)CCC23C)C1(C)C (stereo not drawn) [Compound in Example 50, O-methyl-β-amyrin]
5α-reductase inhibitory rate (%) (sample concentration 10 μg/ml): 16% | 5α-reductase inhibitory rate (%) (sample concentration 50 μg/ml): 31%

CCCCCOC1CCC2(C)C(CCC3(C)C2CC=C2C4CC(C)(C)CCC4(C)CCC23C)C1(C)C (stereo not drawn) [Compound in Example 51, O-pentyl-β-amyrin]
5α-reductase inhibitory rate (%) (sample concentration 10 μg/ml): 22% | 5α-reductase inhibitory rate (%) (sample concentration 50 μg/ml): 38%

CCCCCCCCOC1CCC2(C)C(CCC3(C)C2CC=C2C4CC(C)(C)CCC4(C)CCC23C)C1(C)C (stereo not drawn) [Compound in Example 52, O-octyl-β-amyrin]
5α-reductase inhibitory rate (%) (sample concentration 10 μg/ml): 28% | 5α-reductase inhibitory rate (%) (sample concentration 50 μg/ml): 43%

CCCCCCCCOC1CCC2(C)C(CCC3(C)C2CC=C2C4C(C)C(C)CCC4(C)CCC23C)C1(C)C (stereo not drawn) [Compound in Example 55, O-octyl-α-amyrin]
5α-reductase inhibitory rate (%) (sample concentration 10 μg/ml): 24% | 5α-reductase inhibitory rate (%) (sample concentration 50 μg/ml): 38%

CCCCCCCCOC1CCC2(C)C(=CCC3C2CCC2(C)C(C(C)CCC(CC)C(C)C)CCC32)C1 (stereo not drawn) [Compound in Example 57, O-octyl-β-sitosterol]
5α-reductase inhibitory rate (%) (sample concentration 10 μg/ml): 21% | 5α-reductase inhibitory rate (%) (sample concentration 50 μg/ml): 41%

CCCCCCCCCCCCCCCCCCO[C@H]1CC[C@@]2(C)C(=CC[C@H]3[C@@H]4CC[C@H]([C@H](C)CC[C@@H](CC)C(C)C)[C@@]4(C)CC[C@@H]32)C1 [Compound in Example 58, O-octadecyl-β-sitosterol]
5α-reductase inhibitory rate (%) (sample concentration 10 μg/ml): 31% | 5α-reductase inhibitory rate (%) (sample concentration 50 μg/ml): 46%

CCCCCCCCOC1CCC2(C)C(CCC3(C)C2CC=C2C4C(C)C(C)CCC4(C(=O)O)CCC23C)C1(C)C (centres unmarked) [Compound in Example 59, O-octyl-ursolic acid]
5α-reductase inhibitory rate (%) (sample concentration 10 μg/ml): 22% | 5α-reductase inhibitory rate (%) (sample concentration 50 μg/ml): 41%

CCCCCCCCCCCCCCCCCCOC1CCC2(C)C(CCC3(C)C2CC=C2C4C(C)C(C)CCC4(C(=O)O)CCC23C)C1(C)C (centres unmarked) [Compound in Example 60, O-octadecyl-ursolic acid]
5α-reductase inhibitory rate (%) (sample concentration 10 μg/ml): 35% | 5α-reductase inhibitory rate (%) (sample concentration 50 μg/ml): 49%

CCCCCCCCOC1CCC2(C)C(CCC3(C)C2CC=C2C4CC(C)(C)CCC4(C(=O)O)CCC23C)C1(C)C (centres unmarked) [Compound in Example 61, O-octyl-oleanolic acid]
5α-reductase inhibitory rate (%) (sample concentration 10 μg/ml): 22% | 5α-reductase inhibitory rate (%) (sample concentration 50 μg/ml): 37%

CCCCCCCCOC1CCC2(C)C(CCC3(C)C2CC=C2C4CC(C)(C)CCC4(C)CCC23C)C1(C)C(=O)O (stereo not drawn) [Compound in Example 63, O-octyl-α-boswellic acid]
5α-reductase inhibitory rate (%) (sample concentration 10 μg/ml): 21% | 5α-reductase inhibitory rate (%) (sample concentration 50 μg/ml): 34%

C=C(C)C1CCC2(C(=O)O)CCC3(C)C(CCC4C5(C)CCC(OCCCCCCCC)C(C)(C)C5CCC43C)C12 (centres unmarked) [Compound in Example 65, O-octyl-betulinic acid]
5α-reductase inhibitory rate (%) (sample concentration 10 μg/ml): 19% | 5α-reductase inhibitory rate (%) (sample concentration 50 μg/ml): 31%

CCCCCCCCOC1CCC2(C)C(CCC3(C)C2C(=O)C=C2C4CC(C)(C(=O)O)CCC4(C)CCC23C)C1(C)C (centres unmarked) [Compound in Example 66, O-octyl-glycyrrhetinic acid]
5α-reductase inhibitory rate (%) (sample concentration 10 μg/ml): 33% | 5α-reductase inhibitory rate (%) (sample concentration 50 μg/ml): 51%

CCCCCCCCOC1CCC2(C)C(=CCC3C2CCC2(C)C(C(C)CCC=C(C)C)CCC32)C1 (centres unmarked) [Compound in Example 67, O-octyl-desmosterol]
5α-reductase inhibitory rate (%) (sample concentration 10 μg/ml): 24% | 5α-reductase inhibitory rate (%) (sample concentration 50 μg/ml): 41%

CCCCCCCCO[C@H]1CC[C@@]2(C)C(=CC[C@H]3[C@@H]4CC[C@H]([C@H](C)CCCC(C)C)[C@@]4(C)CC[C@@H]32)C1 [Compound in Example 68, O-octyl-cholesterol]
5α-reductase inhibitory rate (%) (sample concentration 10 μg/ml): 35% | 5α-reductase inhibitory rate (%) (sample concentration 50 μg/ml): 45%

CCCCCCCCOC1CCC2(C)C(=CCC3C2CCC2(C)C(C(C)C=CC(CC)C(C)C)CCC32)C1 (centres unmarked) [Compound in Example 69, O-octyl-stigmasterol]
5α-reductase inhibitory rate (%) (sample concentration 10 μg/ml): 19% | 5α-reductase inhibitory rate (%) (sample concentration 50 μg/ml): 33%

CCCCCCCCOC1CCC2(C)C(=CCC3C2CCC2(C)C(C(C)CCC(C)C(C)C)CCC32)C1 (centres unmarked) [Compound in Example 70, O-octyl-campesterol]
5α-reductase inhibitory rate (%) (sample concentration 10 μg/ml): 28% | 5α-reductase inhibitory rate (%) (sample concentration 50 μg/ml): 51%
